Data taken from BindingDB's records for doi:10.1016/s0960-894x(98)00253-4 (San Francisco State University, 1999).

Target: T1, Gamma-glutamyl hydrolase (Homo sapiens, UniProt Q92820)
T1 sequence (Q92820 whole entry): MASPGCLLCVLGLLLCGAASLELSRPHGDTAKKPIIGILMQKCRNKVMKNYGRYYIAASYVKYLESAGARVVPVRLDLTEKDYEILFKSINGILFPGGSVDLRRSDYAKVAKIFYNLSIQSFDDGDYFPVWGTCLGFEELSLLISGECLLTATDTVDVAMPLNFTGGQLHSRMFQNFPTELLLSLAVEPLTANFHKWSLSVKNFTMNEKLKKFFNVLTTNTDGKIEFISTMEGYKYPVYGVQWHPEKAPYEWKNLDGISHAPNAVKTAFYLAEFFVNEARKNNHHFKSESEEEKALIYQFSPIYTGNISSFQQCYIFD
Assay: ChEBML_68750
Details: read-out: kon (M-1-s-1)
Experimental: Compound was tested for inhibitory potency against gamma-Glutamyl Hydrolase.

| Structure (SMILES) | kon |
| --- | --- |
| COP(=O)(N[C@@H](CCC(=O)O)C(=O)O)c1ccccc1 (some centres not stated) | 4400 M⁻¹ s⁻¹ |
| COP(=O)(N[C@@H](CCC(=O)O)C(=O)O)OC | 177000 M⁻¹ s⁻¹ |
